From US10221144B2, “Antibacterial compounds having broad spectrum of activity” (priority 2014, dated 2019)
Counter-ions that a name gives are not always drawn. Like-named read-outs stand apart in the source and are kept apart here.

Columns and labels:
Format in all cases: biochemical
S. aureus DNA gyrase = target: T1, S. aureus DNA gyrase (Staphylococcus aureus, UniProt P0A0K8+P20831); assay: DNA gyrase supercoiling assay (S. aureus); settings: for inhibition at 100 µM / % inhibition DNA gyrase / inhibition at 50 µM: n/a = not active
T1 construct: purchased Inspiralis, UK
Method: (§1) The above compounds were tested for the inhibition of the enzyme DNA gyrase in a gyrase supercoiling assay and for the inhibition of the enzyme topoisomerase IV in a decatenation assay, in both Gram positive and Gram negative bacteria, according to the following methods.
(§2) Both the assays were carried out according to a set-up method modified from the article to Blanche F, et al. “Differential Behaviors of Staphylococcus aureus and Escherichia coli Type II DNA Topoisomerases”, Antimicrob. Agents Chemother., 1996, Vol. 40, No. 12 p. 2714-2720.
(§3) The compounds were screened at single concentration (200, 100 or 50 μM), in duplicate.
(§4) Reagents from S. aureus and E. coli Gyrase Supercoiling Assay kits (Inspiralis, UK) were used. A master mix with a total volume sufficient for the number of reactions to perform was prepared with the following reagents: 5× assay buffer, relaxed pBR322 substrate (0.5 μg/reaction), RNase-DNase free water. Aliquotes of this mix were dispensed in each tube, then 10× compound stock solutions or vehicle control (DMSO), were added to each reaction tube.
(§5) Reaction was started with E. Coli (2 U/reaction) or S. aureus (1 U/reaction) gyrase enzyme addition.
(§6) A sample added with an equal volume of dilution buffer was used as negative control (without enzyme).
(§7) The reaction tubes were gentle vortexed and incubated 30 minutes at 37° C. Each reaction was stopped by adding 30 μl of Stop Buffer and 30 μl chloroform/isoamyl alcohol (24/1), briefly vortexed for 5-10 seconds and centrifuged at 20000×g for 2 minutes. Samples were loaded onto 1% agarose gel and subjected to electrophoresis for 1 hour at 80V constant voltage in TAE (40 mM Tris-acetate, 2 mM EDTA).
(§8) Data acquisition and analysis. Treatment of relaxed pBR322 with DNA gyrase converted the relaxed topoisomers (DNAs of different linking number) to the supercoiled form of the plasmid, which migrates faster on an agarose gel. An upper band might also be visible, which consists of open-circular (nicked) DNA which is present in the relaxed substrate but co-migrates with some of the relaxed topoisomers.
(§9) Bands were visualized by ethidium bromide staining (dilution 1:20000) for 30 minutes followed by destaining in distilled water for 10 minutes.
(§10) In order to evaluate the compounds activity on the enzyme, the bands of supercoiled DNAs in the gel were photographed by a digital imaging system ImageQuant LAS 4000 (GE Healthcare) according to manufacturer's instructions.
(§11) The fluorescent intensity of each band was analyzed by ImageQuant TL software and it was expressed as volume (volume of the uncalibrated quantity of material in the image feature after subtraction of the background intensity by using rolling ball method).
(§12) Each band intensity was compared, as percentage, to vehicle sample band intensity, which served as positive control, on the same gel.
(§13) Inhibitory activity was expressed as percent of inhibition versus the positive control.
(§14) The supercoiled or decatenated DNA bands obtained as described in Example 1 were analysed as follows.
(§15) Bands were analyzed by gel documentation equipment (Syngene, Cambridge, UK) and quantitated using Syngene Gene Tools software. Raw gel data (fluorescent band volumes) collected from Syngene, GeneTools gel analysis software were converted to a percentage of the 100% control (the fully supercoiled or decatenated DNA band). […] The IC50 data were calculated by using the global curve fit non-linear regression tool by selecting the Single, 2 Parameter fit function from the Exponential Decay equation category.

E. coli Topoisomerase IV = target: T2, E. coli Topoisomerase IV (Escherichia coli, UniProt P0AFI2+P20083); assay: Topoisomerase IV decatenation assay (E. coli); settings: for inhibition at 100 µM / % inhibition Topo IV / inhibition at 50 µM: n/a = not active; for inhibition at 100 µM / inhibition at 50 µM: read-out: % inhibition Topo IV
T2 construct: purchased Inspiralis, UK
Method: as §1, §2, §3
(§16) S. aureus and E. coli Topoisomerase IV decatenation kits (Inspiralis, UK) were used. A master mix with a total volume sufficient for the number of reactions to perform was prepared with the following reagents: 5× assay buffer (50 mM HEPES-KOH (pH 7.6), 100 mM potassium glutamate, 10 mM magnesium acetate, 10 mM DTT, 1 mM ATP, 50 μg/ml albumin), kDNA substrate (200 ng/reaction), RNase-DNase free water. Aliquots of this mix were dispensed in each tube, then 10× compound stock solutions or vehicle control (DMSO), were added in each reaction tube.
(§17) Reaction was started with Topoisomerase IV enzyme (0.5 U/reaction) addition.
as §6
(§18) The reaction tubes were gentle vortexed and incubated 30 minutes at 37° C. Each reaction was stopped by adding 30 μl of Stop Buffer and 30 μl of chloroform/isoamyl alcohol (24/1), briefly vortexed for 5-10 seconds and centrifuged at 20000×g for 2 minutes. Samples taken from the upper phase were loaded into 1% agarose gel and subjected to electrophoresis for 1 hour at 80V constant voltage in TAE (40 mM Tris-acetate, 2 mM EDTA).
(§19) Data acquisition and analysis. Due to the high molecular mass, kDNA could not enter an agarose gel under normal electrophoresis conditions, but remained in the wells. In the presence of Topo IV topoisomerase mini-circles (2.5 Kb) were released from kDNA by decatenation and were quickly and easily resolved in the gel at relatively high voltages.
(§20) Bands were visualized by ethidium bromide staining (dil 1:20000) for 30 minutes followed by destaining in distilled water for 10 minutes.
(§21) For single concentration screening assay, in order to evaluate the compounds activity on the enzymes, the bands of decatenated DNAs in the gel were photographed by a digital imaging system ImageQuant LAS 4000 (GE Healthcare) according to manufacturer's instructions.
as §11, §12, §13, §14, §15

E. coli DNA gyrase = target: T3, E. coli DNA gyrase (Escherichia coli, UniProt P0AES4+P0AES6); assay: DNA gyrase supercoiling assay (E. coli); settings: for inhibition at 100 µM / % inhibition DNA gyrase / inhibition at 50 µM: n/a = not active
T3 construct: purchased Inspiralis, UK
Method: as §1, §2, §3, §4, §5, §6, §7, §8, §9, §10, §11, §12, §13, §14, §15

[1] = target: T4, S. aureus Topoisomerase IV (Staphylococcus aureus, UniProt P0C1S7+P0C1U9); assay: Topoisomerase IV decatenation assay (S. aureus); settings: for inhibition at 100 µM / inhibition at 50 µM: read-out: % inhibition Topo IV
T4 construct: purchased Inspiralis, UK
Method: as §1, §2, §3, §16, §17, §6, §18, §19, §20, §21, §11, §12, §13, §14, §15

[2] = S. aureus, conc. 100 μM, n/a = not active
[3] = S. aureus, concentration-response curve, eight half-log concentrations 0.1 to 300 μM, read-out: IC50 DNA gyrase
[4] = E. coli, concentration-response curve, eight half-log concentrations 0.1 to 300 μM, read-out: IC50 Topo IV
[5] = E. coli, concentration-response curve, eight half-log concentrations 0.1 to 300 μM, read-out: IC50 DNA gyrase
[6] = S. aureus, concentration-response curve, eight half-log concentrations 0.1 to 300 μM, read-out: IC50 Topo IV
[7] = S. aureus, conc. 50 μM, n/a = not active

T2 sequence (P20083 whole entry): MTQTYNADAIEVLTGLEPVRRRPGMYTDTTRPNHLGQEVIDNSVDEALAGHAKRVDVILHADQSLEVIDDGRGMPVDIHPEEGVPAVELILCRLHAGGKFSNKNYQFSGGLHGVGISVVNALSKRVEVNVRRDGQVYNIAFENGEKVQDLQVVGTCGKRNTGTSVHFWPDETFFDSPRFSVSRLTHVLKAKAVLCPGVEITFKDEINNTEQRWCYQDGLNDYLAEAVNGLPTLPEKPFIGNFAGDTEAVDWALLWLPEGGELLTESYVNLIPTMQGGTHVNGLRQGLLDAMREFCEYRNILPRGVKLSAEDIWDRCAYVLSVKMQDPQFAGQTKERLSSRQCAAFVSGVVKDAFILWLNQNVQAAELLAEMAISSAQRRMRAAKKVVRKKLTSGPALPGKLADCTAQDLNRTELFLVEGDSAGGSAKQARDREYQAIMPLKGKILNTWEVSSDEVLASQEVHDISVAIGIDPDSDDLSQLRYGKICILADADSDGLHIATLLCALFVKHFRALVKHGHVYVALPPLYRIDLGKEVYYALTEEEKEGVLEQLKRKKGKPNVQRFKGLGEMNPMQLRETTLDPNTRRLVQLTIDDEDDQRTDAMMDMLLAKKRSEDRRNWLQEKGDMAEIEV
T2 sequence (P0AFI2 whole entry): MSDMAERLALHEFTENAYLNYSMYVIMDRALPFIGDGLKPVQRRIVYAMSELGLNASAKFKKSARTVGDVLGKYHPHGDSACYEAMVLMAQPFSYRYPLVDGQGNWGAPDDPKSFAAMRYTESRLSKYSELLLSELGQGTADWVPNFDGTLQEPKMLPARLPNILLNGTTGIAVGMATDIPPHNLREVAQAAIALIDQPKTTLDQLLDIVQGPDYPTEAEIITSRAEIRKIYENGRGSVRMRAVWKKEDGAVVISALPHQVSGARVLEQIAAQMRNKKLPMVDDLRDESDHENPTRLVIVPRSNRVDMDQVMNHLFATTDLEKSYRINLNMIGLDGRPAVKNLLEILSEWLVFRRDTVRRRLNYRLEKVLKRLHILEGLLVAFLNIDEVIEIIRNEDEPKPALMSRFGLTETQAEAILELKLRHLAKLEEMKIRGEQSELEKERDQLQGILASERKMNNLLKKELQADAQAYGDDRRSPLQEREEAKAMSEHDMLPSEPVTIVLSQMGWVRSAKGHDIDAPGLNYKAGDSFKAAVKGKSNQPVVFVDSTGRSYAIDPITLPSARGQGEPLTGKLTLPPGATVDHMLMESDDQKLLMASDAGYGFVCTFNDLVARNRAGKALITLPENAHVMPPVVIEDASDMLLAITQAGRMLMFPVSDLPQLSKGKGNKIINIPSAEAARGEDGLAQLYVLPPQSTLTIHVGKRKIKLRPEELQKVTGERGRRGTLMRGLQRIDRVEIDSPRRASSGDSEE
T4 sequence (P0C1S7 whole entry): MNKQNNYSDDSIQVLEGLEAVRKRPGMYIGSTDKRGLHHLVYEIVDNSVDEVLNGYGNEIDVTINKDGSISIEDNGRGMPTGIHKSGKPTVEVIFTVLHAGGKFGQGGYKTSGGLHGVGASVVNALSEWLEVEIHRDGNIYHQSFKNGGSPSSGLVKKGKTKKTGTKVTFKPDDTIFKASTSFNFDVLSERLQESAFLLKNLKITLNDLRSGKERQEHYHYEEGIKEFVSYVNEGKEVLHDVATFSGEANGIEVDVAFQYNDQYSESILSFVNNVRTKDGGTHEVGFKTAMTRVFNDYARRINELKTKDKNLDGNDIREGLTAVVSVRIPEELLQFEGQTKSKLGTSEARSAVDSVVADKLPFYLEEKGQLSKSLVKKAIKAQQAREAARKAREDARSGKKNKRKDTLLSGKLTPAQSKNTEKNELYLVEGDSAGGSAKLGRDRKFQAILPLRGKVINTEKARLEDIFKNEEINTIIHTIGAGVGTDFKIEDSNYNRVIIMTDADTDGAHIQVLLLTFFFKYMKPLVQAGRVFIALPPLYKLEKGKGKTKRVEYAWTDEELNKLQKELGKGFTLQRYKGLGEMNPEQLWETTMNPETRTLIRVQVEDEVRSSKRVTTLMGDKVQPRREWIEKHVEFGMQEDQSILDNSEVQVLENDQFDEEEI
T4 sequence (P0C1U9 whole entry): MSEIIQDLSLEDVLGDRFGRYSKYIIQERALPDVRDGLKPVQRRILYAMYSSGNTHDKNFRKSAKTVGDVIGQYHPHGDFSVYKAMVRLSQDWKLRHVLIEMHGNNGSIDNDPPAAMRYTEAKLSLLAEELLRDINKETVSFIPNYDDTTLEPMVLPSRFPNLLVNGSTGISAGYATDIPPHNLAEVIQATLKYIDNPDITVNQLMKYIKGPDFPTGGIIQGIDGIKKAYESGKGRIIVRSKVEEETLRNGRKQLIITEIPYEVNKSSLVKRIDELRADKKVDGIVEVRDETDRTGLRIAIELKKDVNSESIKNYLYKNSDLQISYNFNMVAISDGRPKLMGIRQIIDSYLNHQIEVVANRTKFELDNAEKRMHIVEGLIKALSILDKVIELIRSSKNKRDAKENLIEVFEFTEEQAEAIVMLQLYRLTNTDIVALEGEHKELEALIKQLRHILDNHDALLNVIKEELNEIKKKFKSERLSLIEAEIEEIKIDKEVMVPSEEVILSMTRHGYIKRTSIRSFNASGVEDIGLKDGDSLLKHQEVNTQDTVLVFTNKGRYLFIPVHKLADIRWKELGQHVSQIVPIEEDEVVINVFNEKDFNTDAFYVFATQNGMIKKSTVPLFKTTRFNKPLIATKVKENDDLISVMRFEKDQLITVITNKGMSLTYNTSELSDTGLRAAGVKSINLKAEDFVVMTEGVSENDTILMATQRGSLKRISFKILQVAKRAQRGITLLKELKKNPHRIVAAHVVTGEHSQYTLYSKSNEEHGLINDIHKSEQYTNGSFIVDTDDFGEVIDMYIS
T3 sequence (P0AES4 whole entry, one chain of several): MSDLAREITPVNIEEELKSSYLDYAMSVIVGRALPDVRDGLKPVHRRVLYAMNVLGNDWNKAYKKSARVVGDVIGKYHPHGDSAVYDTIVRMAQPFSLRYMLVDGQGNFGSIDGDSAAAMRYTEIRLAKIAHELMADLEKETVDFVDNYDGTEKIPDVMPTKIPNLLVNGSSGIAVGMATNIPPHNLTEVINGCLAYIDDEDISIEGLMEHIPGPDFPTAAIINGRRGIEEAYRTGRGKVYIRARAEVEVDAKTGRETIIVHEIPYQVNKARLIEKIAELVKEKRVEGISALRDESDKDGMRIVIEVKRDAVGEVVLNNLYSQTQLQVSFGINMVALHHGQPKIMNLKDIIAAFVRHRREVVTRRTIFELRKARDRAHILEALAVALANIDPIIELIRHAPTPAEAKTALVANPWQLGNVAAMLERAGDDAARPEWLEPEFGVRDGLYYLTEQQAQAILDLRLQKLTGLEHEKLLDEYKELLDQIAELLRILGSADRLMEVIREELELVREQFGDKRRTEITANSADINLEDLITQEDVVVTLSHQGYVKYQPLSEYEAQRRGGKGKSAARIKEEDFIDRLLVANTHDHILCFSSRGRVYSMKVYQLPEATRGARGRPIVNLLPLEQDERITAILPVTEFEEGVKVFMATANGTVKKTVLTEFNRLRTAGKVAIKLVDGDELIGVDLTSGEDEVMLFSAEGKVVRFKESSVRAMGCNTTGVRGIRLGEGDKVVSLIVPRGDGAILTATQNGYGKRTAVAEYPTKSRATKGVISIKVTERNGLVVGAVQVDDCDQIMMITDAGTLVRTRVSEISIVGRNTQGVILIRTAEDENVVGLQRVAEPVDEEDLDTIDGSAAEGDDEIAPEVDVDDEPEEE

Molecule	IC50 (S. aureus DNA gyrase) [µM]	IC50 (E. coli Topoisomerase IV) [µM]	IC50 (E. coli DNA gyrase) [µM]	inhibition at 50 µM (S. aureus DNA gyrase; S. aureus, conc. 50 μM) [%]	inhibition at 50 µM (E. coli Topoisomerase IV; E. coli, conc. 50 μM) [%]	inhibition at 50 µM (E. coli DNA gyrase; E. coli, conc. 50 μM) [%]	inhibition at 50 µM [1, 7] [%]	other results
O=c1cc(NCCCN2CCN(c3nccc4ccc(F)cc34)CC2)c2ccccc2o1 [Compound 67, 4-({3-[4-(7-fluoroisoquinolin-1-yl)piperazin-1-yl]propyl}amino)chromen-2-one]	2.8	1.7	0.8	–	–	–	–	inhibition at 100 µM (S. aureus DNA gyrase; S. aureus, conc. 100 μM): 97%; inhibition at 100 µM (E. coli Topoisomerase IV; E. coli, conc. 100 μM): 100%; inhibition at 100 µM (E. coli DNA gyrase; E. coli, conc. 100 μM): 89%; IC50 [1]: 11.8 µM; inhibition at 100 µM [1, 2]: 100%
7-methyl-1-chloroisoquinoline [Compound 72]	–	–	–	–	–	–	–	% inhibition DNA gyrase (S. aureus DNA gyrase; S. aureus, conc. 100 μM): 97%; IC50 (S. aureus DNA gyrase; [3]): 9.6 µM; % inhibition Topo IV (E. coli Topoisomerase IV; E. coli, conc. 100 μM): 91%; IC50 (E. coli Topoisomerase IV; [4]): 3.8 µM; % inhibition DNA gyrase (E. coli DNA gyrase; E. coli, conc. 100 μM): 98%; IC50 (E. coli DNA gyrase; [5]): 2.6 µM; % inhibition Topo IV [1, 2]: 76%; IC50 [1, 6]: 52 µM
O=c1oc2ccccc2c2[nH]c(CNC3CCN(c4nccc5ccc(F)cc45)CC3F)cc12 (centres unmarked) [Compound 172, 2-({[3-fluoro-1-(7-fluoroisoquinolin-1-yl)piperidin-4-yl]amino}methyl)[1]benzopyrano[4,3-b]pyrrol-4(1H)-one]	–	–	–	64	89	94	39	–
O=CNC(CN1CCN(c2nccc3ccc(F)cc23)CC1)c1nc2c(=O)oc3ccccc3c2[nH]1 (centres unmarked) [Compound 159, N-{2-[4-(7-fluoroisoquinolin-1-yl)piperazin-1-yl]-1-(4-oxo-1,4-dihydro[1]benzopyrano[3,4-d]imidazol-2-yl)ethyl}formamide hydrochloride]	0.51	1.04	1.65	100	98	94	–	IC50 [1, 6]: 1.09 µM; inhibition at 50 µM [1]: 100%
O=c1cc(NCCNC2CCN(c3nccc4ccc(F)cc34)CC2)c2cc(F)ccc2o1 [Compound 131, 6-fluoro-4-[(2-{[1-(7-fluoroisoquinolin-1-yl)piperidin-4-yl]amino}ethyl)amino]-2H-chromen-2-one]	–	–	–	81	100	100	78	–
Fc1ccc2ccnc(N3CCN(CCNCc4cc5c(cn4)OCCC5)CC3)c2c1 [Compound 150, N-[(3,4-dihydro-2H-pyrano[2,3-c]pyridin-6-yl)methyl]-2-[4-(7-fluoroisoquinolin-1-yl)piperazin-1-yl]ethan-1-amine]	1.02	4.24	17.1	100	50	50	50	IC50 [1]: 5.89 µM
O=c1cc(NCC(O)CN2CCN(c3nccc4ncccc34)CC2)c2cc(F)ccc2o1 (centres unmarked) [Compound 166, 6-fluoro-4-({2-hydroxy-3-[4-(1,6-naphthyridin-5-yl)piperazin-1-yl]propyl}amino)-2H-1-benzopyran-2-one]	1.13	0.2	0.15	70	90	80	–	IC50 [1, 6]: 0.3 µM; inhibition at 50 µM [1]: 97%
O=c1oc2ccccc2c2[nH]c(CNC3CCN(c4nccc5ccc(F)cc45)CC3O)cc12 (centres unmarked) [Compound 186, 2-({[1-(7-fluoroisoquinolin-1-yl)-3-hydroxypiperidin-4-yl]amino}methyl)[1]benzopyrano[4,3-b]pyrrol-4(1H)-one]	–	–	–	100	54	70	87	–
O=c1cc(NCC(O)CN2CCN(c3nccc4ccccc34)CC2)c2ccccc2o1 (racemic) [Compound 59, 4-({2-hydroxy-3-[4-(isoquinolin-1-yl)piperazin-1-yl]propyl}amino)-2H-chromen-2-one]	4.4	16.1	1.2	–	–	–	–	inhibition at 100 µM (S. aureus DNA gyrase; S. aureus, conc. 100 μM): 90%; inhibition at 100 µM (E. coli Topoisomerase IV; E. coli, conc. 100 μM): 100%; inhibition at 100 µM (E. coli DNA gyrase; E. coli, conc. 100 μM): 81%; IC50 [1]: 18.5 µM; inhibition at 100 µM [1, 2]: 77%
COc1ccc2nccc(N3CCC(NCc4cc5c([nH]4)c(=O)oc4ccc(F)cc45)CC3)c2n1 [Compound 188, 8-fluoro-2-({[1-(6-methoxy-1,5-naphthyridin-4-yl)piperidin-4-yl]amino}methyl)[1]benzopyrano[3,4-b]pyrrol-4(3H)-one]	0.015	0.3	0.09	97	92	100	98	IC50 [1]: 0.2 µM
[O-][n+]1ccc2ccc(F)cc2c1Cl [Compound 100, 1-chloro-7-fluoroisoquinolin-2-ium-2-olate]	–	–	–	–	–	–	–	% inhibition DNA gyrase (S. aureus DNA gyrase; S. aureus, conc. 50 μM): 91%; IC50 (S. aureus DNA gyrase; [3]): 4.7 µM; % inhibition Topo IV (E. coli Topoisomerase IV; E. coli, conc. 50 μM): 76%; IC50 (E. coli Topoisomerase IV; [4]): 10.2 µM; % inhibition DNA gyrase (E. coli DNA gyrase; E. coli, conc. 50 μM): 95%; IC50 (E. coli DNA gyrase; [5]): 4.5 µM
O=c1cc(NCCCN2CCN(c3nccc4cccnc34)CC2)c2ccccc2o1 [Compound 61, 4-({3-[4-(1,7-naphthyridin-8-yl)piperazin-1-yl]propyl}amino)-2H-chromen-2-one]	8.7	20.2	3.3	–	–	–	–	inhibition at 100 µM (S. aureus DNA gyrase; S. aureus, conc. 100 μM): 88%; inhibition at 100 µM (E. coli Topoisomerase IV; E. coli, conc. 100 μM): 92%; inhibition at 100 µM (E. coli DNA gyrase; E. coli, conc. 100 μM): 92%
O=c1cc(NCCCN2CCC(c3nccc4ccccc34)CC2)c2ccccc2o1 [Compound 109, 4-({3-[4-(isoquinolin-1-yl)piperidin-1-yl]propyl}amino)-2H-chromen-2-one]	20.7	5.6	5.1	100	72	100	–	–
O=c1cc(NCCC[N+]2([O-])CCN(c3nccc4ccc(F)cc34)CC2)c2ccccc2o1 [Compound 105, 4-({3-[4-(7-fluoroisoquinolin-1-yl)-1-oxidopiperazin-1-yl]propyl}amino)-2H-chromen-2-one]	6.6	5.6	11.4	100	66	91	–	–
